In patent publication US5185320A, “O^56 -alkyl derivatives of aglycone and pseudo aglycones of teicoplanin” (Gruppo Lepetit S.p.A., priority 1989, dated 1993):

Experiments:
Assay type in all cases: cell-based
Settings in all cases: inoculum about 10^4 CFU/ml, 18-24 h at 37° C.
[1] = system: Haemophilus influenzae ATCC 19418; experiment: MIC, standard dilution test, Haemophilus influenzae ATCC 19418
Procedure: (§1) ISOSENSITEST broth (Oxoid) and TOLLD-HEWITT broth (Difco) are used for growing staphylococci and streptococci, respectively. Broth cultures are diluted so that the final inoculum is about 10^4 colony forming units/ml (CFU/ml).

[2] = system: Strep. pneumoniae UC41; experiment: MIC, standard dilution test, Strep. pneumoniae UC41
Procedure: as §1

[3] = system: Strep. faecalis ATCC 7080; experiment: MIC, standard dilution test, Strep. faecalis ATCC 7080
Procedure: as §1

[4] = system: Pseudomonas aeruginosa ATCC 10145; experiment: MIC, standard dilution test, Pseudomonas aeruginosa ATCC 10145
Procedure: as §1

[5] = system: Strep. mitis L 796; experiment: MIC, standard dilution test, Strep. mitis L 796
Procedure: as §1

[6] = system: Staph. haemolyticus L 602; experiment: MIC, standard dilution test, Staph. haemolyticus L 602
Procedure: as §1

[7] = system: Escherichia coli SKF 12140; experiment: MIC, standard dilution test, Escherichia coli SKF 12140
Procedure: as §1

[8] = system: Staph. epidermidis ATCC 12228; experiment: MIC, standard dilution test, Staph. epidermidis ATCC 12228
Procedure: as §1

[9] = system: Staph. aureus Tour L 165; experiment: MIC, standard dilution test, Staph. aureus Tour L 165
Procedure: as §1

[10] = system: Proteus vulgaris ATCC 881; experiment: MIC, standard dilution test, Proteus vulgaris ATCC 881
Procedure: as §1

[11] = system: Strep. pyogenes C 203; experiment: MIC, standard dilution test, Strep. pyogenes C 203
Procedure: as §1

[12] = system: Neisseria gonorrhoeae ISM68/126; experiment: MIC, standard dilution test, Neisseria gonorrhoeae ISM68/126
Procedure: as §1

For COC(=O)C1NC(=O)C2NC(=O)C(NC(=O)C3NC(=O)C4NC(=O)C(Cc5ccc(c(Cl)c5)Oc5cc3cc(c5OCC3CO3)Oc3ccc(cc3Cl)C2O)NC(=O)C(N)c2ccc(O)c(c2)Oc2cc(O)cc4c2)c2ccc(O)c(c2)-c2c(O)cc(O)cc21.Cl (stereo not shown) [Compound 1, O^56-(2,3-epoxypropyl)deglucoteicoplanin methyl ester], the “Minimal inhibitory concentration (MIC)” value [1] was 64, the “Minimal inhibitory concentration (MIC)” value [2] was 0.125 and the “Minimal inhibitory concentration (MIC)” value [3] was 0.5. For the same compound, the “Minimal inhibitory concentration (MIC)” value [4] was > 128, the “Minimal inhibitory concentration (MIC)” value [5] was 0.25 and the “Minimal inhibitory concentration (MIC)” value [6] was 1. For the same compound, the “Minimal inhibitory concentration (MIC)” value [7] was 32, the “Minimal inhibitory concentration (MIC)” value [8] was 0.063 and the “Minimal inhibitory concentration (MIC)” value [9] was 0.125. The “Minimal inhibitory concentration (MIC)” value [10] was 64, the “Minimal inhibitory concentration (MIC)” value [11] was 0.063 and the “Minimal inhibitory concentration (MIC)” value [12] was 64.

COC(=O)C1NC(=O)C2NC(=O)C(NC(=O)C3NC(=O)C4NC(=O)C(Cc5ccc(c(Cl)c5)Oc5cc3cc(c5OCCCCN3C(=O)c5ccccc5C3=O)Oc3ccc(cc3Cl)C2O)NC(=O)C(N)c2ccc(O)c(c2)Oc2cc(O)cc4c2)c2ccc(O)c(c2)-c2c(O)cc(O)cc21.Cl (stereo not shown) [Compound 2, O^56-[4(N-phthalimido)butyl]deglucoteicoplanin methyl ester] was tested, and the “Minimal inhibitory concentration (MIC)” value [1] was > 128, the “Minimal inhibitory concentration (MIC)” value [2] was 0.125 and the “Minimal inhibitory concentration (MIC)” value [3] was 4. For the same compound, the “Minimal inhibitory concentration (MIC)” value [4] was > 128, the “Minimal inhibitory concentration (MIC)” value [5] was 0.125 and the “Minimal inhibitory concentration (MIC)” value [6] was 4. For the same compound, the “Minimal inhibitory concentration (MIC)” value [7] was > 128, the “Minimal inhibitory concentration (MIC)” value [8] was 2 and the “Minimal inhibitory concentration (MIC)” value [9] was 2. For the same compound, the “Minimal inhibitory concentration (MIC)” value [10] was > 128, the “Minimal inhibitory concentration (MIC)” value [11] was 0.125 and the “Minimal inhibitory concentration (MIC)” value [12] was > 128.

COC(=O)C1NC(=O)C2NC(=O)C(NC(=O)C3NC(=O)C4NC(=O)C(Cc5ccc(c(Cl)c5)Oc5cc3cc(c5OC(CCO)C(=O)O)Oc3ccc(cc3Cl)C2O)NC(=O)C(N)c2ccc(O)c(c2)Oc2cc(O)cc4c2)c2ccc(O)c(c2)-c2c(O)cc(O)cc21.Cl (stereo not shown) [Compound 3, O^56-(1-carboxy-3-hydroxypropyl)deglucoteicoplanin methyl ester hydrochloride] was tested, and the “Minimal inhibitory concentration (MIC)” value [1] was > 128, the “Minimal inhibitory concentration (MIC)” value [2] was 0.125 and the “Minimal inhibitory concentration (MIC)” value [3] was 0.125. For the same compound, the “Minimal inhibitory concentration (MIC)” value [4] was > 128, the “Minimal inhibitory concentration (MIC)” value [5] was 0.25 and the “Minimal inhibitory concentration (MIC)” value [6] was 2. The “Minimal inhibitory concentration (MIC)” value [7] was > 128, the “Minimal inhibitory concentration (MIC)” value [8] was 0.25 and the “Minimal inhibitory concentration (MIC)” value [9] was 0.5. For the same compound, the “Minimal inhibitory concentration (MIC)” value [10] was > 128, the “Minimal inhibitory concentration (MIC)” value [11] was 0.125 and the “Minimal inhibitory concentration (MIC)” value [12] was 64.

In the case of COC(=O)C1NC(=O)C2NC(=O)C(NC(=O)C3NC(=O)C4NC(=O)C(Cc5ccc(c(Cl)c5)Oc5cc3cc(c5OC(CCO)C(=O)NCCN)Oc3ccc(cc3Cl)C2O)NC(=O)C(N)c2ccc(O)c(c2)Oc2cc(O)cc4c2)c2ccc(O)c(c2)-c2c(O)cc(O)cc21.Cl (stereo not shown) [Compound 4, O^56-[1-[[2-aminoethylamino]carbonyl]3-hydroxypropyl]deglucoteicoplanin methyl ester hydrochloride], the “Minimal inhibitory concentration (MIC)” value [1] is reported as 128, the “Minimal inhibitory concentration (MIC)” value [2] is reported as 0.25 and the “Minimal inhibitory concentration (MIC)” value [3] is reported as 0.25. For the same compound, the “Minimal inhibitory concentration (MIC)” value [4] was 64, the “Minimal inhibitory concentration (MIC)” value [5] was 0.125 and the “Minimal inhibitory concentration (MIC)” value [6] was 0.5. For the same compound, the “Minimal inhibitory concentration (MIC)” value [7] was 16, the “Minimal inhibitory concentration (MIC)” value [8] was 0.125 and the “Minimal inhibitory concentration (MIC)” value [9] was 0.125. For the same compound, the “Minimal inhibitory concentration (MIC)” value [10] was 128, the “Minimal inhibitory concentration (MIC)” value [11] was 0.063 and the “Minimal inhibitory concentration (MIC)” value [12] was 64.

COC(=O)C1NC(=O)C2NC(=O)C(NC(=O)C3NC(=O)C4NC(=O)C(Cc5ccc(c(Cl)c5)Oc5cc3cc(c5OCCCCN)Oc3ccc(cc3Cl)C2O)NC(=O)C(N)c2ccc(O)c(c2)Oc2cc(O)cc4c2)c2ccc(O)c(c2)-c2c(O)cc(O)cc21 (stereo not shown) [Compound 5, O^56-(4-aminobutyl)deglucoteicoplanin methyl ester] was tested, and the “Minimal inhibitory concentration (MIC)” value [2] was 0.125, the “Minimal inhibitory concentration (MIC)” value [3] was 0.125 and the “Minimal inhibitory concentration (MIC)” value [4] was 32. For the same compound, the “Minimal inhibitory concentration (MIC)” value [5] was 0.125, the “Minimal inhibitory concentration (MIC)” value [6] was 0.5 and the “Minimal inhibitory concentration (MIC)” value [7] was 8. For the same compound, the “Minimal inhibitory concentration (MIC)” value [8] was 0.125, the “Minimal inhibitory concentration (MIC)” value [9] was 0.125 and the “Minimal inhibitory concentration (MIC)” value [10] was 32. For the same compound, the “Minimal inhibitory concentration (MIC)” value [11] was 0.063.

In the case of COC(=O)C1NC(=O)C2NC(=O)C(NC(=O)C3NC(=O)C4NC(=O)C(Cc5ccc(c(Cl)c5)Oc5cc3cc(c5OCCCCN(CCN(C)C)CCN(C)C)Oc3ccc(cc3Cl)C2O)NC(=O)C(N)c2ccc(O)c(c2)Oc2cc(O)cc4c2)c2ccc(O)c(c2)-c2c(O)cc(O)cc21 (stereo not shown) [Compound 6, O^56-[4-[bis[2-(dimethylamino)ethyl]amino]butyl]deglucoteicoplanin methyl ester], the “Minimal inhibitory concentration (MIC)” value [2] is reported as 0.25, the “Minimal inhibitory concentration (MIC)” value [3] is reported as 0.5 and the “Minimal inhibitory concentration (MIC)” value [4] is reported as > 128. For the same compound, the “Minimal inhibitory concentration (MIC)” value [5] was 0.125, the “Minimal inhibitory concentration (MIC)” value [6] was 0.5 and the “Minimal inhibitory concentration (MIC)” value [7] was 16. The “Minimal inhibitory concentration (MIC)” value [8] was 0.25, the “Minimal inhibitory concentration (MIC)” value [9] was 0.25 and the “Minimal inhibitory concentration (MIC)” value [10] was > 128. The “Minimal inhibitory concentration (MIC)” value [11] was 0.032 and the “Minimal inhibitory concentration (MIC)” value [12] was 128.

In the case of COC(=O)C1NC(=O)C2NC(=O)C(NC(=O)C3NC(=O)C4NC(=O)C(Cc5ccc(c(Cl)c5)Oc5cc3cc(c5OCCCl)Oc3ccc(cc3Cl)C2O)NC(=O)C(N)c2ccc(O)c(c2)Oc2cc(O)cc4c2)c2ccc(O)c(c2)-c2c(O)cc(O)cc21 (stereo not shown) [Compound 7, O^56-(2-chloroethyl) deglucoteicoplanin methyl ester], the “Minimal inhibitory concentration (MIC)” value [1] is reported as 64, the “Minimal inhibitory concentration (MIC)” value [2] is reported as 0.125 and the “Minimal inhibitory concentration (MIC)” value [3] is reported as 2. The “Minimal inhibitory concentration (MIC)” value [4] was > 128, the “Minimal inhibitory concentration (MIC)” value [5] was 0.25 and the “Minimal inhibitory concentration (MIC)” value [6] was 1. The “Minimal inhibitory concentration (MIC)” value [7] was > 128, the “Minimal inhibitory concentration (MIC)” value [8] was 0.5 and the “Minimal inhibitory concentration (MIC)” value [9] was 0.125. The “Minimal inhibitory concentration (MIC)” value [10] was > 128, the “Minimal inhibitory concentration (MIC)” value [11] was 0.125 and the “Minimal inhibitory concentration (MIC)” value [12] was > 128.

In the case of COC(=O)C1NC(=O)C2NC(=O)C(NC(=O)C3NC(=O)C4NC(=O)C(Cc5ccc(c(Cl)c5)Oc5cc3cc(c5OCCO)Oc3ccc(cc3Cl)C2O)NC(=O)C(N)c2ccc(O)c(c2)Oc2cc(O)cc4c2)c2ccc(O)c(c2)-c2c(O)cc(O)cc21 (stereo not shown) [Compound 8, O^56-(2-hydroxyethyl) deglucoteicoplanin methyl ester], the “Minimal inhibitory concentration (MIC)” value [1] is reported as 64, the “Minimal inhibitory concentration (MIC)” value [2] is reported as 0.125 and the “Minimal inhibitory concentration (MIC)” value [3] is reported as 0.125. For the same compound, the “Minimal inhibitory concentration (MIC)” value [4] was > 128, the “Minimal inhibitory concentration (MIC)” value [5] was 0.125 and the “Minimal inhibitory concentration (MIC)” value [6] was 2. The “Minimal inhibitory concentration (MIC)” value [7] was 32, the “Minimal inhibitory concentration (MIC)” value [8] was 0.125 and the “Minimal inhibitory concentration (MIC)” value [9] was 0.125. The “Minimal inhibitory concentration (MIC)” value [10] was > 128, the “Minimal inhibitory concentration (MIC)” value [11] was 0.063 and the “Minimal inhibitory concentration (MIC)” value [12] was 32.

With CNC(=O)C1NC(=O)C2NC(=O)C(NC(=O)C3NC(=O)C4NC(=O)C(Cc5ccc(c(Cl)c5)Oc5cc3cc(c5OCCCCN)Oc3ccc(cc3Cl)C2O)NC(=O)C(N)c2ccc(O)c(c2)Oc2cc(O)cc4c2)c2ccc(O)c(c2)-c2c(O)cc(O)cc21 (stereo not shown) [Compound 9, O^56-(4-aminobutyl)-deglucoteicoplanin methylamide] the “Minimal inhibitory concentration (MIC)” value [1] was 64, the “Minimal inhibitory concentration (MIC)” value [2] was 0.125 and the “Minimal inhibitory concentration (MIC)” value [3] was 0.125. For the same compound, the “Minimal inhibitory concentration (MIC)” value [4] was 64, the “Minimal inhibitory concentration (MIC)” value [5] was 0.125 and the “Minimal inhibitory concentration (MIC)” value [6] was 0.25. For the same compound, the “Minimal inhibitory concentration (MIC)” value [7] was 8, the “Minimal inhibitory concentration (MIC)” value [8] was 0.125 and the “Minimal inhibitory concentration (MIC)” value [9] was 0.25. The “Minimal inhibitory concentration (MIC)” value [10] was 32, the “Minimal inhibitory concentration (MIC)” value [11] was 0.063 and the “Minimal inhibitory concentration (MIC)” value [12] was 64.

In the case of COC(=O)CNC(=O)CNCCOc1c2cc3cc1Oc1ccc(cc1Cl)C(O)C1NC(=O)C(NC(=O)C3NC(=O)C3NC(=O)C(Cc4ccc(c(Cl)c4)O2)NC(=O)C(N)c2ccc(O)c(c2)Oc2cc(O)cc3c2)c2ccc(O)c(c2)-c2c(O)cc(O)cc2C(C(=O)OCCBr)NC1=O (stereo not shown) [Compound 18, O^56-[2-[2-[(2-methoxy-2-oxoethyl)amino]-2-oxoethylamino]ethyl]deglucoteicoplanin 2-bromoethyl ester], the “Minimal inhibitory concentration (MIC)” value [4] is reported as > 128, the “Minimal inhibitory concentration (MIC)” value [6] is reported as 2 and the “Minimal inhibitory concentration (MIC)” value [7] is reported as > 128. For the same compound, the “Minimal inhibitory concentration (MIC)” value [9] was 0.13, the “Minimal inhibitory concentration (MIC)” value [10] was > 128 and the “Minimal inhibitory concentration (MIC)” value [11] was 0.125.

NC1C(=O)NC2Cc3ccc(c(Cl)c3)Oc3cc4cc(c3OCCO)Oc3ccc(cc3Cl)C(O)C3NC(=O)C(NC(=O)C4NC(=O)C(NC2=O)c2cc(O)cc(c2)Oc2cc1ccc2O)c1ccc(O)c(c1)-c1c(O)cc(O)cc1C(C(=O)OCCO)NC3=O (stereo not shown) [Compound 22, O^56-(2-hydroxyethyl)deglucoteicoplanin 2-hydroxyethyl ester] was tested, and the “Minimal inhibitory concentration (MIC)” value [6] was 0.5, the “Minimal inhibitory concentration (MIC)” value [7] was 32 and the “Minimal inhibitory concentration (MIC)” value [9] was 0.06. For the same compound, the “Minimal inhibitory concentration (MIC)” value [11] was 0.125.
